The results in this text go back to ChEMBL document CHEMBL3603805, “Novel metal chelating molecules with anticancer activity. Striking effect of the imidazole substitution of the histidine-pyridine-histidine system” (Bioorg Med Chem, 2015).

In one data set the test system is ASPC1. The data set is described as follows: Cytotoxicity against human AsPC1 cells at 10 uM after 24 hrs by MTT assay. The data set is classed as functional, cell-based.
Data set [1] is described as follows: Stability of the compound under physiological condition. The data set is classed as physicochemical.
The test system of the next data set is U-251. The data set is described as follows: Cytotoxicity against human U251 cells at 10 uM after 24 hrs by MTT assay. The data set is classed as functional, cell-based.
A further data set deals with Escherichia coli. The experiment in a line: Induction of DNA cleavage in Escherichia coli supercoiled pUC19 DNA assessed as formation of nicked form II DNA using FeSO4 at 30 uM after 1.5 hrs by agarose-gel electrophoresis.
A further data set concerns U-87MG ATCC. The experiment in a line: Cytotoxicity against human U87 cells at 10 uM after 24 hrs by MTT assay. The class given is functional, cell-based.

Active and inactive are the calls of the source. The calls are words filed in the database; no cut-off is given here.

Turning to `COC(=O)[C@H](Cc1c[nH]cn1)NCc1cc(N(C)C)cc(CN[C@@H](Cc2cn(C(c3ccccc3)(c3ccccc3)c3ccccc3)cn2)C(=O)OC)n1`, the outcome in the data set with ASPC1, in the data set on U-251, in the data set with Escherichia coli and in the data set on U-87MG ATCC was Active. In addition, in data set [1], the Stability entry is on record as “Stable”.
For `COC(=O)[C@H](Cc1cn(Cc2ccccc2)cn1)NCc1cc(N(C)C)cc(CN[C@@H](Cc2cn(Cc3ccccc3)cn2)C(=O)OC)n1`, the result in the data set on ASPC1, in the data set with U-251 and in the data set with U-87MG ATCC was inactive. In the data set with Escherichia coli, the result was Active.
For `COC(=O)[C@H](Cc1cn(C)cn1)NCc1cc(N(C)C)cc(CN[C@@H](Cc2cn(C)cn2)C(=O)OC)n1`, the result with ASPC1, in the data set on U-251 and in the data set with U-87MG ATCC was inactive. In addition, the result in the data set with Escherichia coli was Active.
On to `COC(=O)[C@H](Cc1c[nH]cn1)NCc1cc(N(C)C)cc(CN[C@@H](Cc2c[nH]cn2)C(=O)OC)n1`, for which the outcome with ASPC1, with U-251 and in the data set with U-87MG ATCC was inactive. Besides, the outcome in the data set with Escherichia coli was Active.
For `COC(=O)[C@H](Cc1c[nH]cn1)NCc1cc(N(C)C)cc(CN[C@@H](Cc2cn(C)cn2)C(=O)OC)n1`, the result in the data set with ASPC1, in the data set on U-251 and in the data set with U-87MG ATCC was inactive. Moreover, the result with Escherichia coli was Active.
Turning to `COC(=O)[C@H](Cc1cn(C(c2ccccc2)(c2ccccc2)c2ccccc2)cn1)NCc1cc(N(C)C)cc(CN[C@@H](Cc2cn(C(c3ccccc3)(c3ccccc3)c3ccccc3)cn2)C(=O)OC)n1`, the outcome with ASPC1, in the data set with U-251, in the data set on Escherichia coli and with U-87MG ATCC was Active. For the same molecule, the Stability entry in data set [1] is “Stable”.
